One experiment relates to Poria placenta. On the procedure:
(§1) The tests were carried out by using test specimens made from spruce or pine wood. The size of specimens made of pine was approx. 20×15×2.4 cm^3 and respectively the size of the specimens made from spruce was approx. 20×12×7.2 cm^3. One half of the wood specimens were subjected to a heat treatment at 190° C. […] One half of the specimens were subjected to no heat treatment. The wood specimens were measured and weighed before the chemical treatment. Neither chemical nor heat treatment was carried out on the reference specimens that were used in the accelerated rotting tests described below.
(§2) The temperature of the solution was 40-50° C. In the vessel there prevailed a pressure of approx. 150 kPa (1.5 bar), by means of which the solution was “forced” into the wood. The treatment time was 2 h. After the chemical treatment the wood specimens were dried in an incubator overnight at 80-90° C.
(§3) In the next phase the specimens treated above were sent to a rot fungus test. European standard EN 113 was applied in carrying out the test. The wood was exposed to conditions as rigorous as possible with respect to decay: temperature was approx. 30° C. and humidity 100%, and bad rot fungi such as Poria placenta, Gloeophyllum trabeum and Coniophora puteana had been introduced into the testing space (culture flask). These fungi are present in all rotting objects. The test lasted for 4 months. […] The rotting of such wood should in an accelerated rotting test be such that the weight loss is at least 20% with each fungus species. The specimens were weighed before the beginning of the test.
(§4) The results of the accelerated rotting tests for spruce are shown in Tables 2-4 and for pine in Tables 5-7.

The next experiment relates to Gloeophyllum trabeum. On the procedure: as §1, §2, §3, §4
The next experiment deals with Coniophora puteana. How it is done:
as §1, §2, §3, §4

Experiment [1] has as its system Poria placenta, Gloeophyllum trabeum and Coniophora puteana. The conditions noted are these: Ca formate treatment in addition to heat treatment. On the procedure: as §3, §4
For a further experiment, the system named is rot fungi. Conditions: closed and humid space containing rot fungi; potassium formate dissolved in water. How it is done:
Next, a test was performed in which a piece of wood was impregnated with potassium formate. This and an untreated wood specimen were placed in a closed and humid space containing rot fungi.

For experiment [2] the following is noted: board kept several days in strong potassium formate solution; buried in garden plot from summer to following summer. From the text: A board specimen was kept for several days in a strong potassium formate solution. After impregnation, the board was in summer buried in a garden plot together with untreated board taken from the same board specimen.

Where two headings read alike, the source gives them in different places.

As for `O=C[O-].O=C[O-].[Ca+2]` [Ca formate, calcium formate], the “Rot resistance class according to standard EN 350-1994” value in the experiment with Poria placenta (treated pine) is recorded as “Class 3”; in the experiment with Poria placenta (treated spruce) it was “Class 3”; in the experiment with Gloeophyllum trabeum (treated pine), “Class 1”; in the experiment on Gloeophyllum trabeum (treated spruce) it was “Class 1”; in the experiment on Coniophora puteana (treated pine) it was “Class 1”; in the experiment with Coniophora puteana (treated spruce), “Class 1”. In experiment [1], the “Rotting of wood (overall conclusion)” value is given as “prevented almost completely”.
Consider `O=C[O-].[K+]` [potassium formate], for which the “Decay activity in the experimental space” value in the experiment on rot fungi is listed as “inhibited all decay activity”. Also, the “Decay of impregnated board after burial” value in experiment [2] is recorded as “without any decay”.

The values are drawn from US20040261961A1, “Wood treatment solution and process for improving the preservation of wood” (priority 2001, published 2004).
